Results reported in patent US11098032B2, “Pyran dervatives as CYP11A1 (cytochrome P450 monooxygenase 11A1) inhibitors” (ORION CORPORATION, priority 2016, dated 2021).
Structures can show the parent of a compound that is named as a salt.

Molecular target: T1, CYP11A1 (Homo sapiens, UniProt P05108)
T1 construct: human H295R adrenocortical carcinoma cell line was used as source of enzyme; endogenous in cells; host or cells: H295R human adrenocortical carcinoma cells
T1 sequence (P05108 40-521): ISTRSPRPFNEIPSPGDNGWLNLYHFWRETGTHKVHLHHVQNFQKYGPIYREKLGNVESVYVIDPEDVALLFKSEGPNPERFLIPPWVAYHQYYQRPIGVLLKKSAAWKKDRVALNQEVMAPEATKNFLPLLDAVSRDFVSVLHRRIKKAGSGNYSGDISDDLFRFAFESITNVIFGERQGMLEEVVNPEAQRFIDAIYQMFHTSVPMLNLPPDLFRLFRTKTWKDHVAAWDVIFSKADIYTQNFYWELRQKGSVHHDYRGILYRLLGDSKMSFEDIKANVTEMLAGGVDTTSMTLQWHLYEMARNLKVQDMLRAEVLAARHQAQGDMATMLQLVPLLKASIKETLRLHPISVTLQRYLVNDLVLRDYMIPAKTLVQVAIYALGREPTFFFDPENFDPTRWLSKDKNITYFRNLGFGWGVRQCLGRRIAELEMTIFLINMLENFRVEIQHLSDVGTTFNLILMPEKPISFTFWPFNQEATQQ
Experiment: CYP11A1 inhibition: modified isocaproic acid release assay (IARA) in H295R cells
Format: cell-based
Settings: human H295R adrenocortical carcinoma cells treated three days, 3 nM [24,25-3H]-labelled cholesterol, 1% DMSO, 10 concentrations in duplicates; read-out: IC50 of the test compounds on CYP11A1 inhibition
Method in brief: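 H295R adrenocortical cells treated three days with test compounds at 10 concentrations in duplicate plus 3 nM [24,25-3H]-cholesterol, 1% DMSO final. Released radiolabelled isocaproic acid measured by scintillation counting after dextran-coated charcoal extraction; IC50 determined.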

Row | SMILES | IC50 [nM]
1 | CNC(=O)c1ccc(COc2coc(CN3Cc4ccccc4C3)cc2=O)cc1 [Compound 62, 4-(((6-(Isoindolin-2-ylmethyl)-4-oxo-4H-pyran-3-yl)oxy)methyl)-N-methylbenzamide] | 301 to 2000
2 | CC(C)(C)OC(=O)N1CCC[C@H](COc2coc(CN3Cc4ccccc4C3)cc2=O)C1 [Compound 201, (S)-tert-Butyl 3-(((6-(isoindolin-2-ylmethyl)-4-oxo-4H-pyran-3-yl)oxy)methyl)-piperidine-1-carboxylate] | 301 to 2000
3 | O=c1cc(CN2Cc3ccccc3C2)occ1OC[C@H]1C=C[C@@H](NS(=O)(=O)C2CC2)C1 (relative stereo) [Compound 274, Cis-N-(4-(((6-(isoindolin-2-ylmethyl)-4-oxo-4H-pyran-3-yl)oxy)methyl)cyclo-pent-2-en-1-yl)cyclopropanesulfonamide, Formate] | 301 to 2000
4 | CC(C)(CO)CNC(=O)c1ccc(COc2coc(CN3Cc4ccccc4C3)cc2=O)cc1 [Compound 151, N-(3-Hydroxy-2,2-dimethylpropyl)-4-(((6-(isoindolin-2-ylmethyl)-4-oxo-4H-pyran-3-yl)oxy)methyl)benzamide] | 301 to 2000

The next lines start with the values.

Row | IC50 [nM] | SMILES
5 | 301 to 2000 | N#Cc1ccc(COc2coc(CN3CCc4ccccc4C3)cc2=O)cc1 [Compound 41, 4-(((6-((3,4-Dihydroisoquinolin-2(1H)-yl)methyl)-4-oxo-4H-pyran-3-yl)oxy)-methyl)benzonitrile]
6 | 150 to 300 | Cc1ccc(S(=O)(=O)N=S(C)(=O)C2CCC(COc3coc(CN4Cc5ccccc5C4)cc3=O)CC2)cc1 (stereo not drawn) [Compound 239, N-{[4-({[6-(1,3-Dihydro-2H-isoindol-2-ylmethyl)-4-oxo-4H-pyran-3-yl]oxy}-methyl)cyclohexyl](methyl)oxido-λ^6-sulfanylidene}-4-methylbenzenesulfonamide]
